Results reported in US20060252774A1, “Regulation of type 5 adenylyl cyclase for treatment of neurodegenerative and cardiac diseases” (priority 2002, published 2006).
Where “and” joins values, the source holds several entries; their conditions need not be identical. Identical values can stand only once. Entries after “also recorded” stand apart in the source; their conditions may differ. Values belong to the molecule of their own block, whether it stands above or below them.

Tests used:
AC5 [1] = target: T1, AC5 (Canis lupus familiaris, UniProt P30803); experiment: AC catalytic activity inhibition, AC5 isoform; assay type: biochemical; design: IC50 for AC5; other: 5 mM MgCl2 with Gsalpha/GTPgammaS/forskolin (50 micro M); other: in the presence of Gsalpha/GTPgammaS/forskolin; other: 10 micro M; details: for IC50: 5 mM MgCl2 with Gsalpha/GTPgammaS/forskolin (50 micro M)
Source text: FIG. 11. […] The relative inhibitory activity versus control (% control activity) for various AC isoforms are shown. Data are means±S.D. of quadruplicate determinations.
Classic inhibitors of AC include adenosine analogs or P-site inhibitors, and MDL12330A, a non-nucleic acid inhibitor. However, not much was known about the isoform selectivity of these inhibitors. […] It was previously noted that AC2 was less sensitive to THFA than the other isoforms, giving a selectivity ratio of 1.8 when compared between AC6 and AC2.
Inventors will first determine the selectivity among the AC isoforms (FIG. 12). […] The IC50 values were calculated to be 0.32 micro M for AC5, 11.1 micro M for AC3, 65.3 micro M for AC2. The selectivity ratio of HI30435 was 207 between AC5 and AC2. […] The selectivity ratio was 18 between AC5 and AC2.

AC5 [2] = target: T1, AC5; experiment: Adenyl cyclase stimulation by forskolin derivatives, High five cell membranes overexpressing type V; assay type: biochemical; design: made in house; host or cells: High Five insect cells (membranes); details: forskolin derivatives
Experimental: FIG. 15: Effect of forskolin, 6[3-(dimethylamino)propionyl]-14,15-dihydroforskolin, and NKH477 on adenyl cyclase [isforms.] isoforms: Forskolin derivatives dose response effect (A-C). High five cell membranes overexpressing type II (A), type III (B), and type V (C) adenyl cyclases. Adenyl cyclase activity was measured in the presence of 5 mM of MgCl2 with various concentrations of forskolin (closed circles), 6[3-(dimethylamino)propionyl]-14,15-dihydroforskolin (D, open triangles) or NKH477 (open circles). Means±SEM from 4 independent experiments are shown. *, p<0.01 differences from the value with forskolin.

[3] = system: conscious WT and AC5KO mice; experiment: Physiological studies in conscious mice: HR (ECG) and arterial pressure; assay type: in vivo, mouse; details: for increase in HR: 1 μg/g i.v.; for change of HR: 0.75 mg/kg i.v.
Source text: FIG. 19: Muscarinic regulation of cardiac function in vivo. A, Effects of atropine. […] B, Effect of ACh. […] C, Baroreflex regulation of HR.
In AC5KO and WT mice, four ECG wires (New England Electric Wire Corporation, Lisbon, N.H., USA) were placed subcutaneously, a silicone elastomer tubing (Cardiovascular Instrument Corp., Wakefield, Mass., USA) was inserted into the right external jugular vein and a 1.4 F micromanometer catheter (Millar Instruments, Inc., Houston, Tex., USA) was inserted into the lower abdominal aorta via the femoral artery as described previously with some modifications. The ECG wires, the silicone elastomer tubing and the micromanometer catheter were tunneled subcutaneously to the back, externalized, and secured in a plastic cap. On the day of the study, each mouse was placed in the mouse holder, the jugular venous catheter was accessed and connected to a microliter syringe (Hamilton Co., Reno, Nev., USA), the 1.4 F micromanometer catheter was connected to a recorder (Dash 4u; Astro-Med, Inc., West Warwick, R.I., USA) and the ECG wires were connected to an ECG amplifier (Gould Inc., Cleveland, Ohio, USA). All experiments were recorded with animals in the conscious state. After at least 6 hours recovery from the implantation of the catheter, when a stable HR was achieved, the baseline ECG and arterial pressure (AP) were recorded for 5 min. Ach (0.05 μg/g) was then administered intravenously (i.v.), and the ECG and AP recording were repeated. A recovery period of 15 min was allowed for the HR and AP to return to baseline before administering the next drug. Baseline HR slowing was examined in response to phenylephrine (0.2 μg/g i.v.).
Electrocardiogram (ECG) wires, a jugular vein catheter for drug infusion, and a femoral artery catheter for arterial pressure monitoring were implanted under anesthesia as described previously. […] Intravenous (i.v.) infusion of ISO (0.04 μg/kg/min i.v. for 5 min) was performed using an infusion pump. To examine the responses to a muscarinic agonist, acetylcholine (ACh) (25 mg/kg i.p.) was co-administered i.p. during the i.v. infusion of ISO (0.04 μg/kg/min). In addition, in conscious mice ACh (0.01 and 0.05 mg/kg), atropine (0.25, 1 and 2 mg/kg), or verapamil (0.75 mg/kg) were administered i.v., and the ECG was recorded. A recovery period of 15 min was allowed for the HR to return to baseline before administering the next drug. To examine HR responses to baroreflex hypertension, phenylephrine (0.2 mg/kg i.v.) was infused, and the ECG and arterial pressure were measured

AC2 = AC2 (Rattus norvegicus, UniProt P26769); experiment: AC catalytic activity inhibition, AC2 isoform; assay type: biochemical; details: in the presence of Gsalpha/GTPgammaS/forskolin
Source text: (§1) Classic inhibitors of AC include adenosine analogs or P-site inhibitors, and MDL12330A, a non-nucleic acid inhibitor.
(§2) Inventors will first determine the selectivity among the AC isoforms (FIG. 12).

AC3 = target: T2, AC3 (Rattus norvegicus, UniProt P21932); experiment: AC catalytic activity inhibition, AC3 isoform; assay type: biochemical; details: in the presence of Gsalpha/GTPgammaS/forskolin
T2 sequence (P21932 1-1144): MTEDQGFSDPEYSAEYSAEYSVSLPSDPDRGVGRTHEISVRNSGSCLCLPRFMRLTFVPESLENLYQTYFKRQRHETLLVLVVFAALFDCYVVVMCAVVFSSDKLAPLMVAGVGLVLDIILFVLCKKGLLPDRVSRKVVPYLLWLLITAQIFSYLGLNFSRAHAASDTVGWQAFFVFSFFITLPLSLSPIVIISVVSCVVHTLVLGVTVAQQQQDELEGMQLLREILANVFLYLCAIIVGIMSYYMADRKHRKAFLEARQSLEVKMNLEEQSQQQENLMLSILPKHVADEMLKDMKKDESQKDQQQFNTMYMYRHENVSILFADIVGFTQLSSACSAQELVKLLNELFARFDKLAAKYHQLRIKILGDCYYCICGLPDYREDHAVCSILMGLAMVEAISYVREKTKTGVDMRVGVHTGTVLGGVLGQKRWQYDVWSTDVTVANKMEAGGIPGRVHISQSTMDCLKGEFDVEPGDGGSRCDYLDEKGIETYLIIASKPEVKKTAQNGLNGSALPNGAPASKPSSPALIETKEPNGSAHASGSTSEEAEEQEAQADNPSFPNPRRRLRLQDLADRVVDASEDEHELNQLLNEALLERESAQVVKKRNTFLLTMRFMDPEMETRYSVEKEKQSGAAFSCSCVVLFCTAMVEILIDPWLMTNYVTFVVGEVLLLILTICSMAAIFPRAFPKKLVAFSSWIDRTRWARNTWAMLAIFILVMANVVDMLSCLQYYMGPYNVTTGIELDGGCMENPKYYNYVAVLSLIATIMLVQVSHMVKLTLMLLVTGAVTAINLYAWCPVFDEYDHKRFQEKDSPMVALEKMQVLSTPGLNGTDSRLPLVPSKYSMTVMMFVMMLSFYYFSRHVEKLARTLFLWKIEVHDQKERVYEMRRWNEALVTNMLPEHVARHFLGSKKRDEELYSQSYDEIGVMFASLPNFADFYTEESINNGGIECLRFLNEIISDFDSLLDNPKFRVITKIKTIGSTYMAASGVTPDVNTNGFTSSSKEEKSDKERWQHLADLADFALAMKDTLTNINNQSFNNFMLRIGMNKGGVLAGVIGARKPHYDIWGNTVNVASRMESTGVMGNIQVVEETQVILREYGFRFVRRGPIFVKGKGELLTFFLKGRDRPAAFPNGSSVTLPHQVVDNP
Source text: as §1, §2

cardiac AC = experiment: AC assay in heart membrane preparations; assay type: biochemical, mouse; details: 10 μM
Experimental: FIG. 17: Adrenergic, muscarinic, and Ca^2+-mediated regulation of cardiac AC activity. A, AC activity in vitro. The steady state AC activity was determined as the maximal cAMP production over 15 min. Stimulation was performed at the level of the β-AR (ISO), G-protein (GTPγS) and AC catalytic unit with forskolin (Fsk). *P<0.01, n=5. B, Effects of carbachol on AC activity. AC was preactivated by ISO. AC activity was then determined in the absence and presence of carbachol. Carbachol at 10 μmol/L produced its maximal inhibitory effect. *P<0.01, n−5. C, To investigate the inhibition of AC activity by Ca^2+, we examined cAMP production in membranes from the hearts of WT and AC5KO at increasing Ca^2+ concentrations in the presence of ISO. ISO-stimulated AC activity was inhibited more in WT than in AC5KO. […].
Hearts were dissected from the mice and membrane preparations were prepared as described previously. Protein concentration was measured by the method of Bradford using bovine serum albumin as a standard. AC activity was measured as described previously. AC activity was linear within the incubation time up to 30 min. In order to harvest hearts for tissue cAMP content measurements, mice were allowed to acclimate to the surroundings in the laboratory for an hour before sacrifice. Freshly isolated hearts were briefly immersed in liquid nitrogen. The tissue was homogenized in ice-cold 6% percholic acid, and cAMP was extracted as described before. The concentration of cAMP was determined with an RIA kit (PerkinElmer Life Sciences, Boston, Mass., USA).
Hearts were dissected from the mice, and membrane preparations were prepared as described previously. Protein concentration was measured by the Bradford method using bovine serum albumin as a standard. AC activity was measured as described previously. AC activity was linear within the incubation time up to 30 min. For the study of Ca 2+ inhibition, the membranes were treated first with EGTA to extract the endogenous Ca 2+ prior to the assay. Free Ca 2+ concentrations were obtained with the use of 200 μmol/L EGTA buffers as described previously. The experiments with Ca 2+ inhibition were conducted in the presence of 100 μmol/L isoproterenol (ISO)+100 μmol/L GTP.

T1 sequence (P30803 whole entry, canonical isoform): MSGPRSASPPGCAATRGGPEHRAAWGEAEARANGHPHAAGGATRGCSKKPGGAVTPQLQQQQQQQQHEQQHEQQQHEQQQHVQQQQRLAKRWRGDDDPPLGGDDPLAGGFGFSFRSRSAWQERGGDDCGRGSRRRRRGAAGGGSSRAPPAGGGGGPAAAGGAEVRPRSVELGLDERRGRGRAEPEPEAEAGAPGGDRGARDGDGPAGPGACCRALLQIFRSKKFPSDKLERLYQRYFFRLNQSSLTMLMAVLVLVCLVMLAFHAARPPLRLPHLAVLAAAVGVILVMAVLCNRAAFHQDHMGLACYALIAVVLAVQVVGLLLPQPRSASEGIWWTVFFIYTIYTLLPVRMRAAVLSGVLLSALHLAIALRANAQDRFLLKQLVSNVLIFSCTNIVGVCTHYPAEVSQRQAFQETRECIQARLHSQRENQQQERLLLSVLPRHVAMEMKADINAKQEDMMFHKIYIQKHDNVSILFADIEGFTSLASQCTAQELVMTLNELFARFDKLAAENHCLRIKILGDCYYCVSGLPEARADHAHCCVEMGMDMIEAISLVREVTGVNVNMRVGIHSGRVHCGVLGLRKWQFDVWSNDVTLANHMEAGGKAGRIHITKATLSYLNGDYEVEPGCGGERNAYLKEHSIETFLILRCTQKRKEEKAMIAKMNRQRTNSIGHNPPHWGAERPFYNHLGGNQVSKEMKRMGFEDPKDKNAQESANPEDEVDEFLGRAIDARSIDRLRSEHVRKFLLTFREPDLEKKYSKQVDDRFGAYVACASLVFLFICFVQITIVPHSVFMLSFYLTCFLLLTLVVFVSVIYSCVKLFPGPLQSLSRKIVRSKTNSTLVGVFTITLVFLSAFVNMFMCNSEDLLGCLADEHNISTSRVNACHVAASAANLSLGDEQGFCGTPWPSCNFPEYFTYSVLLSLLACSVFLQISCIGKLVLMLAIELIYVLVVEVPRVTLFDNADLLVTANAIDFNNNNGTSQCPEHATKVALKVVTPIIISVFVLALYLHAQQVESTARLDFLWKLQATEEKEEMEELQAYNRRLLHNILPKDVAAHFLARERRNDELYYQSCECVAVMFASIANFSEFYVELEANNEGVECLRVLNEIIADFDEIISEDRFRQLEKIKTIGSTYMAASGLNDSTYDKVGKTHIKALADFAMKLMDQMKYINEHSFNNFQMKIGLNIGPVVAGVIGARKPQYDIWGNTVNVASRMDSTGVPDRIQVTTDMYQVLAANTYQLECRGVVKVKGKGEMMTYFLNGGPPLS

IC50 (AC5 [1]): 0.82 µM
SMILES: Nc1ncnc2c1ncn2[C@H]1C[C@H](OP(=O)(O)O)[C@@H](CO)O1 [2′-d-3′-AMP]

IC50 (AC5 [1]): 14.6 µM
SMILES: Nc1ncnc2c1ncn2[C@@H]1O[C@H](CO)[C@@H](OP(=O)(O)O)[C@H]1O [3′-AMP]

AC5 selectivity of stimulation (in words) (AC5 [2]): small enhancement in AC5 selectivity
SMILES: CC[C@@]1(C)CC(=O)[C@@]2(O)[C@]3(C)[C@H](O)CCC(C)(C)[C@H]3[C@@H](O)[C@@H](OC(C)=O)[C@]2(C)O1 [14,15-Dihydroforskolin]

SMILES: CC(=O)OCC[N+](C)(C)C [ACh, acetylcholine]
decrease of HR ([3]; conscious AC5KO, 0.01 μg/g i.v. (Example 2)): 7.5%
decrease of HR ([3]; conscious AC5KO, 0.01 mg/kg i.v. (Example 3)): 1.3%
decrease of HR ([3]; conscious WT, 0.01 μg/g i.v. (Example 2)): 22%
decrease of HR ([3]; conscious WT, 0.01 mg/kg i.v. (Example 3)): 15%

inhibition of AC2 (in words) (AC2): only to a modest degree
inhibition of AC5 (in words) (AC5 [1]; in the presence of Gsalpha/GTPgammaS/forskolin): potently inhibited AC5
inhibition of AC3 (in words) (AC3): only to a modest degree
SMILES: Nc1ncnc2c1ncn2C1CCCC1 [CPA, 9-(cyclopentyl)adenine]

SMILES: C[N+](C)(C)CCOC(N)=O [Carbachol]
decrease of ISO-stimulated AC activity (in words) (cardiac AC; AC5KO heart membranes): did not inhibit; also recorded: hardly detectable
decrease of ISO-stimulated AC activity (cardiac AC; WT heart membranes, ISO 100 μM + GTP 100 μM): 21±3.4% and 21±3%

SMILES: CNC[C@H](O)c1cccc(O)c1 [Phenylephrine, phenylephrine]
systolic arterial pressure (in words) ([3]; WT and AC5KO, 0.2 μg/g (0.2 mg/kg) i.v.): increased systolic arterial pressure significantly in both WT and AC5KO; also recorded: increased systolic arterial pressure similarly in both WT and AC5KO

SMILES: CN1[C@@H]2CC[C@H]1C[C@@H](OC(=O)C(CO)c1ccccc1)C2 (stereo partly drawn) [atropine]
increase in HR ([3]; conscious AC5KO): 19±7.5 beats/min
increase in HR (in words) ([3]; conscious AC5KO, 1 mg/kg i.v. (Example 3)): not observed in AC5KO
increase in HR ([3]; conscious WT): 102±22.2 beats/min

SMILES: COc1ccc(CCN(C)CCCC(C#N)(c2ccc(OC)c(OC)c2)C(C)C)cc1OC (stereo not drawn) [verapamil]
change of HR ([3]; conscious AC5KO): −33±10 beats/min
change of HR ([3]; conscious WT): −36±10 beats/min
